According to article PMC8286840, “Identifying SARS-CoV-2 antiviral compounds by screening for small molecule inhibitors of Nsp3 papain-like protease” (Biochemical Journal, 2021):
Where two headings read alike, the source gives them in different places. Where a SMILES comes first, the peptide text is derived from it. Bridges are numbered along the chain shown (N, C = ends). [ ]: non-standard residue; d: D form. 2Nal = N[C@@H](Cc1ccc2ccccc2c1)C(=O)O; Lys(iPr) = CC(C)NCCCC[C@H](N)C(=O)O

Experiments:
[1] = target: T1, SARS-CoV-2 PLpro (nsp3 1564–1878) (Severe acute respiratory syndrome coronavirus 2, UniProt P0DTD1); assay: biochemical; parameters: FRET-quenched peptide (Pro3) cleavage by PLpro, 10 min pre-incubation, slope over 20 min, normalised to no-compound control; conditions: low concentration screen, read-out: % of control remaining
[2] = target: T1, SARS-CoV-2 PLpro (nsp3 1564–1878); assay: biochemical; parameters: FRET-quenched peptide (Pro3) cleavage by PLpro, 10 min pre-incubation, slope over 20 min, normalised to no-compound control; conditions: high concentration screen, read-out: % of control remaining

**Q.** What does the source list for CC(C)(S)[C@H](N)C(=O)O [L-Penicillamine]?
**A.** remaining activity at 1.25 µM ([1]; Well no.=3332): 100%; remaining activity at 3.75 µM ([2]; Well no.=3332): 99.5%

**Q.** O=C(O)[C@@H]1CCCN1 [L-Proline] was tested. Which remaining activity at 1.25 µM ([1]; Well no.=7737) did it give?
**A.** 105%

**Q.** What about the remaining activity at 1.25 µM ([1]; Well no.=8324) of the same compound?
**A.** 101%

**Q.** What about the remaining activity at 3.75 µM ([2]; Well no.=7737) of the same compound?
**A.** 108%

**Q.** And the remaining activity at 3.75 µM ([2]; Well no.=8324)?
**A.** 97.3%

**Q.** O=C1CC[C@@H](C(=O)O)N1 [L-Pyroglutamic acid] was tested. Which remaining activity at 1.25 µM ([1]; Well no.=6783) did it give?
**A.** 102%

**Q.** What about the remaining activity at 3.75 µM ([2]; Well no.=6783) of the same compound?
**A.** 104%

**Q.** For C[Se]CC[C@H](N)C(=O)O [L-SelenoMethionine], which remaining activity at 1.25 µM ([1]; Well no.=6681) is on record?
**A.** 106%

**Q.** And the remaining activity at 3.75 µM ([2]; Well no.=6681)?
**A.** 103%

**Q.** For N[C@@H](CO)C(=O)O [L-Serine], which remaining activity at 1.25 µM ([1]; Well no.=7695) is on record?
**A.** 105%

**Q.** What about the remaining activity at 3.75 µM ([2]; Well no.=7695) of the same compound?
**A.** 110%

**Q.** With CCNC(=O)CC[C@H](N)C(=O)O [L-Theanine] as the compound, how does the remaining activity at 1.25 µM ([1]; Well no.=3522) read?
**A.** 97.3%

**Q.** And the remaining activity at 3.75 µM ([2]; Well no.=3522)?
**A.** 99%

**Q.** For N[C@@H](Cc1c[nH]c2ccccc12)C(=O)O [L-Tryptophan], which remaining activity at 1.25 µM ([1]; Well no.=1471) is on record?
**A.** 96.7%

**Q.** And the remaining activity at 1.25 µM ([1]; Well no.=7361)?
**A.** 100%

**Q.** And the remaining activity at 3.75 µM ([2]; Well no.=1471)?
**A.** 98.2%

**Q.** And the remaining activity at 3.75 µM ([2]; Well no.=7361)?
**A.** 100%

**Q.** How did the remaining activity at 1.25 µM ([1]; Well no.=8650) turn out when CC(C)[C@H](N)C(=O)N[C@@H](Cc1ccccc1)C(=O)O [L-Valyl-L-phenylalanine] (H-Val-Phe-OH) was run?
**A.** 103%

**Q.** And the remaining activity at 3.75 µM ([2]; Well no.=8650)?
**A.** 101%

**Q.** C=CC[C@H](N)C(=O)O [L-allylglycine] was tested. Which remaining activity at 1.25 µM ([1]; Well no.=292) did it give?
**A.** 91.4%

**Q.** And the remaining activity at 3.75 µM ([2]; Well no.=292)?
**A.** 91.8%

**Q.** For C[C@](N)(Cc1ccc(O)c(O)c1)C(=O)O [L-alpha-Methyl DOPA], which remaining activity at 1.25 µM ([1]; Well no.=1039) is on record?
**A.** 97.7%

**Q.** What about the remaining activity at 3.75 µM ([2]; Well no.=1039) of the same compound?
**A.** 98.3%

**Q.** C[C@](N)(Cc1ccc(O)cc1)C(=O)O [L-alpha-Methyl-p-tyrosine] was tested. Which remaining activity at 1.25 µM ([1]; Well no.=843) did it give?
**A.** 104%

**Q.** And the remaining activity at 3.75 µM ([2]; Well no.=843)?
**A.** 106%

**Q.** With O=C(O)[C@@H]1CCN1 [L-azetidine-2-carboxylic acid] as the compound, how does the remaining activity at 1.25 µM ([1]; Well no.=103) read?
**A.** 105%

**Q.** And the remaining activity at 3.75 µM ([2]; Well no.=103)?
**A.** 104%

**Q.** Which results are given for C[N+](C)(C)C[C@H](O)CC(=O)[O-] [L-carnitine]?
**A.** remaining activity at 1.25 µM ([1]; Well no.=8100): 106%; remaining activity at 3.75 µM ([2]; Well no.=8100): 104%

**Q.** N[C@@H](Cc1cc(I)c(Oc2cc(I)c(O)c(I)c2)c(I)c1)C(=O)O [L-thyroxine] was tested. Which remaining activity at 1.25 µM ([1]; Well no.=2298) did it give?
**A.** 86.3%

**Q.** What about the remaining activity at 1.25 µM ([1]; Well no.=7299) of the same compound?
**A.** 102%

**Q.** And the remaining activity at 3.75 µM ([2]; Well no.=2298)?
**A.** 88.2%

**Q.** What about the remaining activity at 3.75 µM ([2]; Well no.=7299) of the same compound?
**A.** 105%

**Q.** What does the source list for O=C(Nc1cnc(-c2ccncc2F)c(-c2cccnc2)n1)C1CC1 [LAS101057]?
**A.** remaining activity at 1.25 µM ([1]; Well no.=8599): 105%; remaining activity at 3.75 µM ([2]; Well no.=8599): 103%

**Q.** How did the remaining activity at 1.25 µM ([1]; Well no.=8766) turn out when O=C(c1cn(Cc2cncn2Cc2ccc(Br)cc2)cc1-c1cccc2ccccc12)N1CCOCC1 [LB42708] was run?
**A.** 99.3%

**Q.** And the remaining activity at 3.75 µM ([2]; Well no.=8766)?
**A.** 91.4%

**Q.** With N#Cc1ccc([C@H]2CCc3cncn32)c(F)c1 [LCI699] as the compound, how does the remaining activity at 1.25 µM ([1]; Well no.=8526) read?
**A.** 98.2%

**Q.** What about the remaining activity at 3.75 µM ([2]; Well no.=8526) of the same compound?
**A.** 98.2%

**Q.** With CN[C@@H](C)C(=O)N[C@H](C(=O)N1CCC[C@H]1c1nc(C(=O)c2ccc(F)cc2)cs1)C1CCCCC1 [LCL161] as the compound, how does the remaining activity at 1.25 µM ([1]; Well no.=6594) read?
**A.** 91.2%

**Q.** What about the remaining activity at 3.75 µM ([2]; Well no.=6594) of the same compound?
**A.** 94.5%

**Q.** With c1ccc2c(-c3cnn4cc(-c5ccc(N6CCNCC6)cc5)cnc34)ccnc2c1 [LDN193189] as the compound, how does the remaining activity at 1.25 µM ([1]; Well no.=4956) read?
**A.** 99.3%

**Q.** What about the remaining activity at 3.75 µM ([2]; Well no.=4956) of the same compound?
**A.** 97.7%

**Q.** Which results are given for CC(=O)O/N=C1\C(=O)N(Cc2cc(Cl)ccc2Cl)c2ccc(Cl)cc21 [LDN-57444]?
**A.** remaining activity at 1.25 µM ([1]; Well no.=5908): 94.9%; remaining activity at 3.75 µM ([2]; Well no.=5908): 91.7%

**Q.** With CN1CCc2ccccc2Cc2[nH]c3ccccc3c2CC1 [LE 300] as the compound, how does the remaining activity at 1.25 µM ([1]; Well no.=1027) read?
**A.** 101%

**Q.** What about the remaining activity at 3.75 µM ([2]; Well no.=1027) of the same compound?
**A.** 101%

**Q.** Which results are given for C/C(O)=C(\C#N)C(=O)Nc1cc(Br)ccc1Br [LFM-A13 - 2-Cyano-N-(2,5-dibromophenyl)-3-hydroxy-2-butenamide]?
**A.** remaining activity at 1.25 µM ([1]; Well no.=2384): 101%; remaining activity at 3.75 µM ([2]; Well no.=2384): 102%

**Q.** For C/C(O)=C(\C#N)C(=O)Nc1cc(Br)ccc1Br [LFM-A13], which remaining activity at 1.25 µM ([1]; Well no.=789) is on record?
**A.** 99.1%

**Q.** What about the remaining activity at 3.75 µM ([2]; Well no.=789) of the same compound?
**A.** 97.7%

**Q.** Which results are given for Clc1ccc(Nc2nc3ccccc3c3nc(C4CCCCC4)[nH]c23)cc1Cl [LUF6000]?
**A.** remaining activity at 1.25 µM ([1]; Well no.=8661): 93.9%; remaining activity at 3.75 µM ([2]; Well no.=8661): 93.1%

**Q.** Which remaining activity at 1.25 µM ([1]; Well no.=7237) does the source give for CC1(C)C(=O)N(CCN2CCC(C(=O)c3ccc(F)cc3)CC2)c2ccccc21 [LY310762] here?
**A.** 102%

**Q.** And the remaining activity at 3.75 µM ([2]; Well no.=7237)?
**A.** 100%

**Q.** For CCc1c(CC(N)=O)c2cc(OCCCP(=O)(O)O)ccc2n1Cc1ccccc1 [LY311727], which remaining activity at 1.25 µM ([1]; Well no.=5502) is on record?
**A.** 102%

**Q.** What about the remaining activity at 3.75 µM ([2]; Well no.=5502) of the same compound?
**A.** 109%

**Q.** How did the remaining activity at 1.25 µM ([1]; Well no.=4689) turn out when C[C@H](NC(=O)[C@@H](O)c1cc(F)cc(F)c1)C(=O)N[C@@H]1C(=O)N(C)c2ccccc2-c2ccccc21 [LY411575] was run?
**A.** 102%

**Q.** What about the remaining activity at 3.75 µM ([2]; Well no.=4689) of the same compound?
**A.** 101%

**Q.** How did the remaining activity at 1.25 µM ([1]; Well no.=5645) turn out when O=C1NC(=O)C(c2cnc3ccccn23)=C1c1cn2c3c(cc(F)cc13)CN(C(=O)N1CCCCC1)CC2 [LY2090314] was run?
**A.** 98.7%

**Q.** And the remaining activity at 3.75 µM ([2]; Well no.=5645)?
**A.** 98.2%

**Q.** For c1ccc(-c2nn3c(c2-c2ccnc4cc(OCCN5CCOCC5)ccc24)CCC3)nc1 [LY2109761], which remaining activity at 1.25 µM ([1]; Well no.=4685) is on record?
**A.** 103%

**Q.** And the remaining activity at 3.75 µM ([2]; Well no.=4685)?
**A.** 103%

**Q.** Which remaining activity at 1.25 µM ([1]; Well no.=4856) does the source give for Cc1cccc(-c2nn3c(c2-c2ccnc4ccc(C(N)=O)cc24)CCC3)n1 [LY2157299] here?
**A.** 99.9%

**Q.** What about the remaining activity at 3.75 µM ([2]; Well no.=4856) of the same compound?
**A.** 98.9%

**Q.** CC(C)(C)Cn1c(N)nc2ccc(-c3[nH]c(C(C)(C)C)nc3-c3ccc(F)cc3)nc21 [LY2228820] was tested. Which remaining activity at 1.25 µM ([1]; Well no.=4915) did it give?
**A.** 98.6%

**Q.** What about the remaining activity at 3.75 µM ([2]; Well no.=4915) of the same compound?
**A.** 99.6%

**Q.** For CC(C)NCCCC[C@H](NC(=O)[C@H]1CCC(=O)N[C@@H](Cc2ccccc2)C(=O)N[C@@H](Cc2ccc(O)cc2)C(=O)N[C@@H](CCCCNC(C)C)C(=O)N[C@H](CCCN=C(N)N)C(=O)N[C@@H](Cc2ccc3ccccc3c2)C(=O)NCC(=O)N1)C(N)=O [LY2510924] (FY[Lys(iPr)][dR][2Nal]G[dE][Lys(iPr)]-NH2; lactam N-7), which remaining activity at 1.25 µM ([1]; Well no.=8513) is on record?
**A.** 101%

**Q.** What about the remaining activity at 3.75 µM ([2]; Well no.=8513) of the same compound?
**A.** 102%

**Q.** Which results are given for O=C(Nc1ncc(SCCN2CCCC2)s1)[C@]1(c2ccc(S(=O)(=O)C3CC3)cc2)C[C@H]1C1CCCCC1 [LY2608204]?
**A.** remaining activity at 1.25 µM ([1]; Well no.=4772): 100%; remaining activity at 3.75 µM ([2]; Well no.=4772): 99.2%

**Q.** Which remaining activity at 1.25 µM ([1]; Well no.=4806) does the source give for Cc1cc(Nc2cc(CN3CCOCC3)c3nc(C)c(Cc4ccc(Cl)cc4F)n3n2)n[nH]1 [LY2784544] here?
**A.** 98.3%

**Q.** What about the remaining activity at 3.75 µM ([2]; Well no.=4806) of the same compound?
**A.** 101%

**Q.** Which remaining activity at 1.25 µM ([1]; Well no.=4949) does the source give for C[C@@]1(c2cc(-c3cncnc3)c(F)cc2F)CCSC(N)=N1 [LY2811376] here?
**A.** 101%

**Q.** And the remaining activity at 3.75 µM ([2]; Well no.=4949)?
**A.** 103%
